Read-outs that look alike come from different tables or passages of the source.
Legend:
[1] = test system: EGFR; conditions: cited from earlier work
[2] = test system: receptor for fibroblast growth factor; conditions: ATP-binding site of the catalytic domain; cited from earlier work
[3] = target: T1, v-Src (Rous sarcoma virus, UniProt P00524); conditions: cited from earlier work
[4] = target: EGFR (Homo sapiens, UniProt P00533); assay: PTK; format: biochemical
[5] = target: T1, v-Src; assay: PTK activity of immunopurified v-Src, 32P incorporation into Raytide; format: biochemical; conditions: for mode of inhibition of v-Src with respect to ATP: various ATP concentrations
[6] = target: KDR/Flk-1 (Homo sapiens, UniProt P35968); assay: PTK activity in KDR/Flk-1-NIH3T3 cells; format: cell-based
[7] = test system: PTK; format: biochemical; conditions: SR-3Y1 lysate
[8] = test system: protein kinase A; assay: Simultaneous protein kinase detection in SR-3Y1 lysate: protein kinase A bands; format: biochemical
[9] = test system: protein kinase C; assay: Simultaneous protein kinase detection in SR-3Y1 lysate: protein kinase C bands; format: biochemical
[10] = target: eukaryotic elongation factor-2 kinase, and calmodulin-dependent protein kinase III (Rattus norvegicus, UniProt P70531); assay: Simultaneous protein kinase detection in SR-3Y1 lysate: eEF-2K, CaMK III bands; format: biochemical
[11] = test system: 37 lines of cancer cells derived from human solid tumors; assay: Cell death in panel of 37 lines of cancer cells derived from human solid tumors; format: cell-based; conditions: 37 human solid tumor lines, 48 h
[12] = test system: sarcoma 180 tumor cells; conditions: mice implanted with sarcoma 180 tumor cells; cited from earlier work
[13] = test system: topoisomerases I; conditions: cited from earlier work
[14] = test system: topoisomerases II; conditions: cited from earlier work
[15] = target: Flt-1 (Homo sapiens, UniProt P17948); assay: PTK activity in Flt-1-overexpressing NIH3T3 cells; format: cell-based
[16] = target: catalytic subunit of protein kinase A (Bos taurus, UniProt P00517); assay: Activity of isolated catalytic subunit of protein kinase A; format: biochemical, bovine; conditions: treatment with as much as 100 M; results not shown
[17] = test system: A431 cells; assay: Cell-growth inhibition of carcinoma A431 cells; format: cell-based; conditions: Homo sapiens, A-431, read-out: IC50 for cell-growth inhibition
[18] = test system: SR-3Y1 cells; assay: Cell-growth inhibition of SR-3Y1 cells; format: cell-based; conditions: SR3Y1, read-out: IC50 for cell-growth inhibition
[19] = test system: NCI-H522; assay: Cell death in human cancer cell line panel; format: cell-based; conditions: NCI-H522 lung cancer cells, 48 h
[20] = test system: DMS114; assay: Cell death in human cancer cell line panel; format: cell-based; conditions: DMS114 lung cancer cells, 48 h
[21] = test system: HL-60 cells; conditions: cited from earlier work

T1 sequence (P00524 2-526): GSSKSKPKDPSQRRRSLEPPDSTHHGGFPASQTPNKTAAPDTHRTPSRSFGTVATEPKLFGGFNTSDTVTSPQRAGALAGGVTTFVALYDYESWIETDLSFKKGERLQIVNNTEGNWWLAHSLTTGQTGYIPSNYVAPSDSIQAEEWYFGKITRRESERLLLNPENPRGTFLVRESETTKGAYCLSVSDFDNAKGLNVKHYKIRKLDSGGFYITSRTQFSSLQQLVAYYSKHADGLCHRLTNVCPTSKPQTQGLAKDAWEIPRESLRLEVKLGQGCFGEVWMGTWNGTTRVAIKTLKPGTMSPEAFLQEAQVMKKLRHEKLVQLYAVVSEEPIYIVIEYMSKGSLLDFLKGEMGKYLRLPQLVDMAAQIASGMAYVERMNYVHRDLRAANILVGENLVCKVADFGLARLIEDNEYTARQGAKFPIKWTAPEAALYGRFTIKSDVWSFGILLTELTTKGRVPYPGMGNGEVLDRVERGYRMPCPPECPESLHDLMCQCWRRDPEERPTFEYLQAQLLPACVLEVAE
Chain of KDR/Flk-1 (P35968 20-1356): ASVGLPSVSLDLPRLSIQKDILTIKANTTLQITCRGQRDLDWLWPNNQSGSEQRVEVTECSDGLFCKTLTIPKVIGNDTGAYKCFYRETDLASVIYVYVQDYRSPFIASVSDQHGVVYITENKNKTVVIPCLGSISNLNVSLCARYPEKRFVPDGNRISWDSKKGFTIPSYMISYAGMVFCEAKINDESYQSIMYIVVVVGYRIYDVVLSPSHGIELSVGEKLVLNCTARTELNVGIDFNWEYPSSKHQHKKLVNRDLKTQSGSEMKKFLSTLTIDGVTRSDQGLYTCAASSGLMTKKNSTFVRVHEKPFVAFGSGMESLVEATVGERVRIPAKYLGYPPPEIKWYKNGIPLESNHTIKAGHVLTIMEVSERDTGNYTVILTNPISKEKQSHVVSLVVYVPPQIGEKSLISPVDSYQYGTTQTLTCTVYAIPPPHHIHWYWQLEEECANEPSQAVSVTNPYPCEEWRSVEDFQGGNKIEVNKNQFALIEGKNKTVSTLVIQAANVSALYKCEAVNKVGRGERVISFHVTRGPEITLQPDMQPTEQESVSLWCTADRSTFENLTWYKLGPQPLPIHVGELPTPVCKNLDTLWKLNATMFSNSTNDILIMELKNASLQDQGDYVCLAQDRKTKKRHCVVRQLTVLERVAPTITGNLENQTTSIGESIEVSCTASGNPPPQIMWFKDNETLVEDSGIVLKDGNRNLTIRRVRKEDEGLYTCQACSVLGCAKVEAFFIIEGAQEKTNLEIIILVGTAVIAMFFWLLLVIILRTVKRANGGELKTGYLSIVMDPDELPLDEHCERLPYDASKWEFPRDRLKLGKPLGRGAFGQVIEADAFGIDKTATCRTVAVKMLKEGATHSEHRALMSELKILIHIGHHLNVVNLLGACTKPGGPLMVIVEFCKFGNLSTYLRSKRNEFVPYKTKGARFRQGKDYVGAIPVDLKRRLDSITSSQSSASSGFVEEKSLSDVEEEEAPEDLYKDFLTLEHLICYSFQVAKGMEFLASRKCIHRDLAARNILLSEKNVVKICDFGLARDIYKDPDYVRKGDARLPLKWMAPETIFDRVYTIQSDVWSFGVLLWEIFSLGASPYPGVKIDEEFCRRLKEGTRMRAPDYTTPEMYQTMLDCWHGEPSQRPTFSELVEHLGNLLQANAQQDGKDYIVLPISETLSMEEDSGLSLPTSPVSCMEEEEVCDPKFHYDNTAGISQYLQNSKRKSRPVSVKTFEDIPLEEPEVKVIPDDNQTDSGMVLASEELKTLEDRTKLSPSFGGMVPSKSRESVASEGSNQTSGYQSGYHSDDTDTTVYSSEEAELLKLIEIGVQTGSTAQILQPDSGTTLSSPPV
Chain of EGFR (Homo sapiens, UniProt P00533) (P00533 25-1210, looked up): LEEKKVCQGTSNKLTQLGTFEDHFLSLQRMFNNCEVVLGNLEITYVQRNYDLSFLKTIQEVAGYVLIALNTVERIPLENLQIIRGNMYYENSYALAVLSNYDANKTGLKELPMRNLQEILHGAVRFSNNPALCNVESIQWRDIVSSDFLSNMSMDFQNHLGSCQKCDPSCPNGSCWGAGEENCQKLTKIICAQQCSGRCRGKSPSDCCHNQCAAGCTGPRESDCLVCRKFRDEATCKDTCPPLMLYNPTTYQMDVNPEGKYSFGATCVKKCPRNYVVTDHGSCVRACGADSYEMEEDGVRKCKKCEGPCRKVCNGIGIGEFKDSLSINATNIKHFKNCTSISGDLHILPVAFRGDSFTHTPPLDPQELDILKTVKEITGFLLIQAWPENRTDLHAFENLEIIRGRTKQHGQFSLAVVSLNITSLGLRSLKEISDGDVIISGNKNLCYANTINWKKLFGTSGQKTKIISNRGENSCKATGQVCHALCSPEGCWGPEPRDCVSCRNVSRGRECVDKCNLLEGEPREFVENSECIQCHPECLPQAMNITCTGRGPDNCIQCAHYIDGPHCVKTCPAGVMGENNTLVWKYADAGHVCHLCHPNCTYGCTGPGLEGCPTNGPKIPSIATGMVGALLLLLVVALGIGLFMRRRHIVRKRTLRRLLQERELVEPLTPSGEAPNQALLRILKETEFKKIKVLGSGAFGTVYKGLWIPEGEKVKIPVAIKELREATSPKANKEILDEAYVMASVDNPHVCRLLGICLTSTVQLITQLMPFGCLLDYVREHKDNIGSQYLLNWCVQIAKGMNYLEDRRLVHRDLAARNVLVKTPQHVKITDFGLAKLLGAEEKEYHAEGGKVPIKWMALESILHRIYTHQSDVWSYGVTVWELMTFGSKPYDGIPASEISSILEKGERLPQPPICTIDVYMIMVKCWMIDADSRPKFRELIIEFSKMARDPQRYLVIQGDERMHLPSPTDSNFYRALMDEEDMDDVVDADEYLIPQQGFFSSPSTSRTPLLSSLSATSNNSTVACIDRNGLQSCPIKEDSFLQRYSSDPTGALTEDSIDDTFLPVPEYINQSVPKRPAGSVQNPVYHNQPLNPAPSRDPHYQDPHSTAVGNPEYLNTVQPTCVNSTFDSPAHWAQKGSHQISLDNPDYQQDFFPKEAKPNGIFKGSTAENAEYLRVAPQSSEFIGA
Chain of eukaryotic elongation factor-2 kinase, and calmodulin-dependent protein kinase III (P70531 2-724): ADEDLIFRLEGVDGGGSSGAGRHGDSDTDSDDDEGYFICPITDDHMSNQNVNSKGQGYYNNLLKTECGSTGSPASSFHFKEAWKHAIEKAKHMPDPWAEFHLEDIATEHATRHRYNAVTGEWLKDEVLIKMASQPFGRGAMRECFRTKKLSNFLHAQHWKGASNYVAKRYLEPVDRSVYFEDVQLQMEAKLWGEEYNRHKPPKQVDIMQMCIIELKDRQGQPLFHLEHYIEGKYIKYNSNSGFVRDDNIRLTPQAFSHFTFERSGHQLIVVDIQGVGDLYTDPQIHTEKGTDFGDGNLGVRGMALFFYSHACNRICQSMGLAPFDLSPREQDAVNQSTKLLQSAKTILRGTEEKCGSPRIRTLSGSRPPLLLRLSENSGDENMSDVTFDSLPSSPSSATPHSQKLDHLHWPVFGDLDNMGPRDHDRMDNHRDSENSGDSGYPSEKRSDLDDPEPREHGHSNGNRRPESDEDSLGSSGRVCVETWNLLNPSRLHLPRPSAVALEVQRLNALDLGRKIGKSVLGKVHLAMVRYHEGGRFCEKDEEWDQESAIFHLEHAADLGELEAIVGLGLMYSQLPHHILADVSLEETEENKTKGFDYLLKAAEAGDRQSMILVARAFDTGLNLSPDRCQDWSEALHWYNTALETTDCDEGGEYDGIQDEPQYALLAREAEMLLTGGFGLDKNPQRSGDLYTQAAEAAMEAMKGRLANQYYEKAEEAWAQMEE
Chain of Flt-1 (P17948 27-1338, species assumed): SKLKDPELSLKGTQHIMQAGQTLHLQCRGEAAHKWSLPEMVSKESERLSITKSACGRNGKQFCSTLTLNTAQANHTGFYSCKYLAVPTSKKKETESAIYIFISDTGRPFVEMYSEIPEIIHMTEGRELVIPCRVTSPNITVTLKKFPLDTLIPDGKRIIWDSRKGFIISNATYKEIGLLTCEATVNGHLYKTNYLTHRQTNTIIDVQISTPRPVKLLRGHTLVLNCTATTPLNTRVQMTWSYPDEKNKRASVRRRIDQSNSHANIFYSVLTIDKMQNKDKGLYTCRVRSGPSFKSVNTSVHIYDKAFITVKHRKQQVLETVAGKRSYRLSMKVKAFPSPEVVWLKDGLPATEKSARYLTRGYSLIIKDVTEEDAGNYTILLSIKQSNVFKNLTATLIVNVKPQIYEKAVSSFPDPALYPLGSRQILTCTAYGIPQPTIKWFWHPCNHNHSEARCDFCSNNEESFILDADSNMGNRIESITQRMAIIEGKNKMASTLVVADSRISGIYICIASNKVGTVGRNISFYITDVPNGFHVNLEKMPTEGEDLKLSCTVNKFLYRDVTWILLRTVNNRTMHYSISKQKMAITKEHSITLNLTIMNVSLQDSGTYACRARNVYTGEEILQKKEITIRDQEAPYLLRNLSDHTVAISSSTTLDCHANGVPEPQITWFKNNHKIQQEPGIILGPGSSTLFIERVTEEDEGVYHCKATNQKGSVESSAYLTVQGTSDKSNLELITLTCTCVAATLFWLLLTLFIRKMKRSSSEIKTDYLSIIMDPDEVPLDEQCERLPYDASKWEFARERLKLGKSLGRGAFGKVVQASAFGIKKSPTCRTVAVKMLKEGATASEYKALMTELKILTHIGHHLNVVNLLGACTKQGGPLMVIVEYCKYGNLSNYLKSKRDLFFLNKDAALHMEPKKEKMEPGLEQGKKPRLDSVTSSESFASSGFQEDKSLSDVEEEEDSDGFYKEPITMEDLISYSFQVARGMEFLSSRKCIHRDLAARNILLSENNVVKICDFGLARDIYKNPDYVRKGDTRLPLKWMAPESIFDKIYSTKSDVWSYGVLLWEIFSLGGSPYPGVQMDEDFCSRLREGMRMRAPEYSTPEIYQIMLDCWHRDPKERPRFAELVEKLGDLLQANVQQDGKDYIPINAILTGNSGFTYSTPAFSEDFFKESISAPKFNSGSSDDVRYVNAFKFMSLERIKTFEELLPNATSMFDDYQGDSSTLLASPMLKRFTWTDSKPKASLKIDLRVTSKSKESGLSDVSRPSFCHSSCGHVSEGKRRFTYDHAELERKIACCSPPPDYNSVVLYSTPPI

SMILES: CNc1cc2c(Nc3cccc(Br)c3)ncnc2cn1 [PD158780, 4‐[(3‐bromophenyl)amino]‐6‐(methylamino)‐pyrido[3,4‐d]pyrimidine]
- mode of inhibition of PTK activity of EGFR with respect to ATP [1]: competition with ATP

SMILES: Cc1[nH]c(/C=C2\C(=O)Nc3ccccc32)c(C)c1CCC(=O)O [SU6668]
- mode of inhibition of receptor for fibroblast growth factor with respect to ATP [2]: compete with ATP

SMILES: O=CN/C=C/c1cc(O)ccc1O [erbstatin]
- mode of inhibition of PTK activity of EGFR with respect to ATP [1]: competition with ATP

SMILES: O=c1c(-c2ccc(O)cc2)coc2cc(O)cc(O)c12 [genistein]
- mode of inhibition of PTK activity of EGFR with respect to ATP [1]: competition with ATP

SMILES: O=C(O)c1cc(N(Cc2ccccc2O)Cc2cc(O)ccc2O)ccc1O [lavendastin-A]
- mode of inhibition of PTK activity of EGFR with respect to ATP [1]: competition with ATP

SMILES: O=c1c(O)c(-c2ccc(O)c(O)c2)oc2cc(O)cc(O)c12 [quercetin]
- mode of inhibition of v-Src with respect to ATP [3]: competition with ATP
- IC50 ([3]; read-out: IC50 on v-Src): 3000 nM

SMILES: CC(C)=CC[C@@H](O)C1=CC(=O)c2c(O)ccc(O)c2C1=O [shikonin, reference compound]
- IC50 for EGFR ([4]; EGFR isolated from A431 cells, estimated from Fig. 4B): impossible to estimate
- concentration required for inhibition of the PTK activity of EGFR ([4]; Fig. 4A): more than 10 M
- PTK activity of v-Src remaining in the presence of inhibitor ([5]; lowest level reached over concentrations tested (Fig. 5)): ≥ 50%
- inhibition of PTK activity of KDR/Flk-1 (in words) ([6]; KDR/Flk-1-NIH3T3 cells): inhibited significantly
- intensities of bands of proteins phosphorylated by PTK [7]: decreased markedly
- intensities of bands of proteins phosphorylated by protein kinase A [8]: not significantly altered
- intensities of bands of proteins phosphorylated by protein kinase C [9]: not significantly altered
- intensities of bands of proteins phosphorylated by eEF-2 kinase and CaMK III [10]: not significantly altered
- induction of cell death across the panel [11]: induced cell death in a wide variety of tumor cell lines
- antitumor activity [12]: exhibits antitumor activity
- inhibition of topoisomerase I activity [13]: inhibit
- inhibition of topoisomerase II activity [14]: inhibit

SMILES: CC(C)=CC[C@@H](OC(=O)CC(C)(C)O)C1=CC(=O)c2c(O)ccc(O)c2C1=O [β‐HIVS, β‐Hydroxyisovalerylshikonin]
- IC50 [4]: ~700 nM
- inhibition of tyrosine kinase activity of EGFR (in words) [4]: strongly inhibited
- inhibition of tyrosine phosphorylation of EGFR [4]: evident
- IC50 [5]: ~1000 nM
- inhibition of tyrosine kinase activity of v-Src (in words) [5]: strongly inhibited
- mode of inhibition of v-Src with respect to ATP ([5]; Lineweaver-Burk, 1 and 10 M inhibitor): non‐competitive
- mode of inhibition of v-Src with respect to ATP ([5]; Lineweaver-Burk, 1 and 10 M inhibitor, listed as -HIVS): did not compete with ATP
- mode of inhibition of v-Src with respect to substrate Raytide ([5]; Lineweaver-Burk, various Raytide concentrations, 1 and 10 M inhibitor): competitively inhibited
- IC50 [6]: ~2500 nM
- concentration needed to inhibit the tyrosine kinase activity of KDR/Flk-1 ([6]; KDR/Flk-1-NIH3T3 cells): more than 1 M
- inhibition of PTK activity of KDR/Flk-1 (in words) ([6]; KDR/Flk-1-NIH3T3 cells): weakly inhibited
- inhibition of PTK activity of KDR/Flk-1 (in words) ([6]; KDR/Flk-1-NIH3T3 cells, listed as -HIVS): inhibited significantly
- IC50 [15]: > 5000 nM
- change in activity of catalytic subunit of protein kinase A [16]: practically no change
- intensities of bands of proteins phosphorylated by PTK [7]: decreased markedly
- intensities of bands of proteins phosphorylated by protein kinase A [8]: not significantly altered
- intensities of bands of proteins phosphorylated by protein kinase C [9]: not significantly altered
- intensities of bands of proteins phosphorylated by eEF-2 kinase and CaMK III [10]: not significantly altered
- IC50 [17]: ~11000 nM
- IC50 [18]: ~1200 nM
- induction of cell-death [19]: efficiently induced cell-death
- induction of cell-death [20]: efficiently induced cell-death
- induction of apoptosis [21]: induced apoptosis

Reference: PMC5927115 (Japanese Journal of Cancer Research : Gann, 2002)
